{"source": "patent US8252768B2", "about": "“Designer therapy of pancreatic tumors” (University of Miami, priority 2006, dated 2012)", "key": {"cytidine deaminase (CD)": {"target": "T1, cytidine deaminase (CD) (Homo sapiens, UniProt P32320)", "T1 construct": "Crude extracts of PC-3 cells in culture were prepared as described above; endogenous in cells; host or cells: PC-3 cells (crude extract supernatant)", "T1 sequence (P32320 whole entry)": "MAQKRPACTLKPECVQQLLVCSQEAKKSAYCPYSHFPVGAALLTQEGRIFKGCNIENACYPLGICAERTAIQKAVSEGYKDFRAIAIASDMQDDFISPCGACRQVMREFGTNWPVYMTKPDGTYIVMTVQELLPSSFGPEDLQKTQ", "assay": "Competition assay for substrates of cytidine deaminase, crude extracts of PC-3 cells", "format": "biochemical", "experimental": "The crude enzyme extract (the supernatant of a 10 minute 14,000×g centrifugation) was then added. When cytidine was used as substrate, assays were conducted with benzacyclouridine to inhibit uridine phosphorylases. […] After 0, 15, and 30 minutes, the reaction was stopped and denatured protein removed as above for dC Kinase. […] Aliquots were then spotted on PE cellulose TLC sheets and the reactants separated with a solvent system composed of isopropanol:HCl:H2O (170:41:39). […] The nucleosides were visualized under U.V. light and the spots cut out and counted. […] Enzyme activity was expressed as nmole formed in 30 min/mg/protein.\nCompetition assays to determine Substrate Specificity: Crude extracts of PC-3 cells in culture were prepared as described above. Two concentrations of crude extract were utilized for the studies as determined from the analysis of protein.\nThe assays were run for 0, 15, and 30 minutes."}, "PC-3 cells [1]": {"test_system": "PC-3 cells", "assay": "Cytotoxicity (clonogenic) assay, 72 h drug exposure", "format": "cell-based, human", "experimental": "(§1) Toxicity and Radiation Studies: The methods using clonogenic assays described by Perez and Greer (Int. J. Rad. Oncology: Biology, Physics 12, 1523-1527, 1986—incorporated herein by reference in its entirety) were followed.\nCytotoxicity Assays: 5×10^5 cells were plated in 60 mm tissue culture dishes in 5 mls of the optimal growth media for the particular cell line in an humidified 95% air-5% CO2 atmosphere. The plates were incubated for 18-20 hours to allow for attachment and log-phase growth to begin. At the end of this period the growth medium was aspirated and replaced with […]. Four times (4×) concentrated solutions were prepared and then 1 ml was added to the plates; and growth media were then added to a total volume of […]. The plates were then incubated for 72 hours and the cells harvested by trypsinization. The cells were then serially diluted in growth medium replated into 60 mm dishes and incubated for 6 to 9 days depending on the cell line. After this incubation period, the media was aspirated and the colonies were washed twice with a PBS solution. The colonies were then stained with a 0.2% crystal violet-20% ethanol solution for 5 min. the stain was removed, the colonies were washed and air dried. A viable colony was one consisting of 25 or more normal appearing cells and was considered to have arisen from a single cell. The colonies were counted under a dissecting microscope. Two to three dilutions for every condition were plated. Dishes containing 30-300 colonies were used in the calculation and all conditions were done in duplicate."}, "PC-3 cells [2]": {"test_system": "PC-3 cells", "assay": "Radiosensitization of cells in culture (Cobalt 60, clonogenic survival)", "format": "cell-based, human", "settings": "cells in culture", "experimental": "as §1\nIrradiation of Cells in Culture: 2×10^5 cells were plated in 25 cm^2 flasks and grown for 18 hr at 37° C. in a humidified 5% CO2 atmosphere. The medium was then removed and replaced with medium containing the appropriate drug concentrations and incubated for 72 hrs then removed and the cell monolayers were rinsed twice with PBS. The flasks were then filled with 50 ml of radiation medium (3 parts RPMI 1640 and 7 parts PBS plus antibiotics and glutamine). The cells were then irradiated using a Cobalt 60 irradiator. The cell monolayers were placed 35 cm away from the source and irradiated for appropriate times according to the dose rate. The dose rate was calculated, at this distance, using ionization chambers. Attenuation factors due to the polystyrene flask (0.9923) and the medium (H2O=0.8715) were considered in calculating the exposure period.\nAfter irradiation the cell monolayers were washed again, replenished with growth media, and incubated for 1½ hours. The cell monolayers were then trypsinized and the cells serially diluted, appropriate dilutions were then plated in 60 mm dishes and incubated for 7-9 days at 37° C. and CO2. At the end of this period the cells were stained with crystal violet and the colony forming ability determined by considering 25 or more normal cells as a viable colony. The viabilities were determined and the appropriate survival curves derived. All conditions were done in duplicate using two flasks treated under identical conditions."}, "[3]": {"target": "deoxycytidine kinase (dCK) (Homo sapiens, UniProt P27707)", "sequence (P27707 whole entry)": "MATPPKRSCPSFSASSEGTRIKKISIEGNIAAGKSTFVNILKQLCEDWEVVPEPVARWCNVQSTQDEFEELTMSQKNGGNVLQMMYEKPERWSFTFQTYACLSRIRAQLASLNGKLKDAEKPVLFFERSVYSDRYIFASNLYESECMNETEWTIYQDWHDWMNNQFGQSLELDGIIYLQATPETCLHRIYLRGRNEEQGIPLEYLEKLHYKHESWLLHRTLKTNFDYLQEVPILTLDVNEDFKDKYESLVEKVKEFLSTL", "assay": "Competition assay for substrates of deoxycytidine kinase, crude extracts of PC-3 cells"}, "[4]": {"settings": "competition studies, human tumor cell extracts"}}, "note": "Read-outs that look alike come from different tables or passages of the source.", "data": [{"smiles": "Nc1nc(=O)n([C@H]2C[C@H](O)[C@@H](CO)O2)cc1I", "note": "[5-IdC, 5-Iodo-2′-deoxycytidine]", "values": [{"measurement": "substrate for cytidine deaminase (in words)", "setting": "cytidine deaminase (CD); [4]", "result": "good substrates"}, {"measurement": "inhibition at 250 µM", "setting": "cytidine deaminase (CD); competitor 250 μM, substrate 3H-Deoxycytidine 25 μM, ratio 10, PC-3 extracts", "result": 60, "unit": "%"}, {"measurement": "effect of tetrahydrouridine (H4U) on cytotoxicity / viability (in words)", "setting": "PC-3 cells [1]", "result": "antagonized by Tetrahydrouridine"}, {"measurement": "effect of thymidine on cytotoxicity (in words)", "setting": "PC-3 cells [1]", "result": "antagonized by thymidine"}, {"measurement": "effect of tetrahydrouridine (H4U) on cytotoxicity / viability (in words)", "setting": "PC-3 cells [1]; human, 72 h", "result": "reversal by H4U"}, {"measurement": "% S", "setting": "PC-3 cells [1]; nucleoside 5 μM, H4U 0 μM", "result": 15, "unit": "%"}, {"measurement": "% S", "setting": "PC-3 cells [1]; nucleoside 5 μM, H4U 5 μM", "result": 100, "unit": "%"}, {"measurement": "% S", "setting": "PC-3 cells [1]; nucleoside 5 μM, H4U 100 μM", "result": 97, "unit": "%"}, {"measurement": "% S", "setting": "PC-3 cells [1]; nucleoside 5 μM, H4U 1500 μM", "result": 100, "unit": "%"}, {"measurement": "% S", "setting": "PC-3 cells [1]; nucleoside 10 μM, H4U 5 μM", "result": 53, "unit": "%"}, {"measurement": "% S", "setting": "PC-3 cells [1]; nucleoside 10 μM, H4U 100 μM", "result": 73, "unit": "%"}, {"measurement": "% S", "setting": "PC-3 cells [1]; nucleoside 10 μM, H4U 1500 μM", "result": 89, "unit": "%"}, {"measurement": "% S", "setting": "PC-3 cells [1]; nucleoside 20 μM, H4U 5 μM", "result": 30, "unit": "%"}, {"measurement": "% S", "setting": "PC-3 cells [1]; nucleoside 20 μM, H4U 100 μM", "result": 65, "unit": "%"}, {"measurement": "% S", "setting": "PC-3 cells [1]; nucleoside 20 μM, H4U 1500 μM", "result": 61, "unit": "%"}, {"measurement": "effect of thymidine on radiosensitization (in words)", "setting": "PC-3 cells [2]", "result": "antagonized by thymidine"}, {"measurement": "effect of tetrahydrouridine (H4U) on radiosensitization (in words)", "setting": "PC-3 cells [2]; listed as 5-Iododeoxycytidine", "result": "reversal by H4U"}, {"measurement": "effect of tetrahydrouridine (H4U) on radiosensitization (in words)", "setting": "PC-3 cells [2]; listed as IdC", "result": "greater radiosensitization than IdC alone"}, {"measurement": "substrate for deoxycytidine kinase (in words)", "setting": "[3]; [4]", "result": "very poor substrates"}, {"measurement": "inhibition at 250 µM", "setting": "[3]; read-out: % Inhibition (dCK)", "result": 0, "unit": "%"}]}]}
